Experiment [1] concerns the target Acetylcholinesterase (Electrophorus electricus, UniProt O42275). Put plainly: Inhibition of electric eel AChE using S-acetylthiocholine iodide as substrate preincubated for 60 mins followed by substrate addition and measured for 5 mins by Ellman's method. For orientation: Ellman's reagent forms a yellow product with free thiols.
For experiment [2], the target named is Cholinesterase (Equus caballus, UniProt P81908). Put plainly: Inhibition of equine serum BChE using S-butyrylthiocholine iodide as substrate preincubated for 60 mins followed by substrate addition and measured for 5 mins by Ellman's method.
Experiment [3] concerns the target Acetylcholinesterase (Homo sapiens, UniProt P22303). Put plainly: Inhibition of human erythrocyte AChE using S-acetylthiocholine iodide as substrate preincubated for 60 mins followed by substrate addition and measured for 5 mins by Ellman's method.
Experiment [4] has as its target T1, Cholinesterase (Homo sapiens, UniProt P06276). Put plainly: Inhibition of human plasma BChE using S-butyrylthiocholine iodide as substrate preincubated for 60 mins followed by substrate addition and measured for 5 mins by Ellman's method.
Experiment [5] concerns the target T1, Cholinesterase. Put plainly: Inhibition of human plasma BChE at 2.5 to 25 nM using S-butyrylthiocholine iodide as substrate incubated prior to substrate addition and measured for 5 mins by Ellman's method. To be noted: TDE = time-dependent effect.
Experiment [6] addresses T1, Cholinesterase. Put plainly: Inhibition of human plasma BChE using S-butyrylthiocholine iodide as substrate preincubated for 20 to 60 mins followed by substrate addition and measured for 5 mins by Ellman's method.
For experiment [7], the target named is T1, Cholinesterase. Put plainly: Inhibition of human plasma BChE assessed as second order carbamylation rate constant using S-butyrylthiocholine iodide as substrate preincubated for 15 to 60 mins followed by substrate addition by Ellman's method.
Experiment [8] has as its target T1, Cholinesterase. Put plainly: Inhibition of human plasma BChE assessed as decarbamylation rate constant using S-butyrylthiocholine iodide as substrate preincubated for 15 to 60 mins followed by substrate addition by Ellman's method.
Experiment [9] addresses T1, Cholinesterase. In words: Potency index, ratio of test compound to rivastigmine for inhibition of human plasma BChE assessed as second order carbamylation rate constant using S-butyrylthiocholine iodide as substrate.
Experiment [10] has as its target T1, Cholinesterase. In words: Inhibition of human plasma BChE at 15 to 100 nM using S-butyrylthiocholine iodide as substrate incubated prior to substrate measured for 5 mins by Ellman's method. The settings on record: TDE = time-dependent effect.

Each structure is given as a SMILES string. pIC50: −log10 of the molar value.

Chain of Acetylcholinesterase (Electrophorus electricus, UniProt O42275) (O42275 whole entry): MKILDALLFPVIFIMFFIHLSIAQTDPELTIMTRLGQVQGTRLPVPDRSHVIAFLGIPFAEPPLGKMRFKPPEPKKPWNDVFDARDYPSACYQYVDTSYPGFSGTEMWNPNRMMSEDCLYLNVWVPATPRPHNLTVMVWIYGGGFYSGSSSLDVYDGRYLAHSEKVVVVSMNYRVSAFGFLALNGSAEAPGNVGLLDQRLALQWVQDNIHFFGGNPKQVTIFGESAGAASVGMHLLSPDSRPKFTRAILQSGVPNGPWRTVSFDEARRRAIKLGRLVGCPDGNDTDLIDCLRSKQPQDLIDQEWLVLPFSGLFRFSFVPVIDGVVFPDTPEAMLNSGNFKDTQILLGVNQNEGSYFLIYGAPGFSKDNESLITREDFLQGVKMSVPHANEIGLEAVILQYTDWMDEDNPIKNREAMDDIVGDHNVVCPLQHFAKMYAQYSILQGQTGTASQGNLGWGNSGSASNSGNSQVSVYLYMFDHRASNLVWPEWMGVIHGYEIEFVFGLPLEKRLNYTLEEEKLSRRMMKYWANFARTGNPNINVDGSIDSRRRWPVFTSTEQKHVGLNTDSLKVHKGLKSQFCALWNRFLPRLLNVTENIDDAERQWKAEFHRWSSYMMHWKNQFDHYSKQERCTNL
T1 sequence (P06276 whole entry): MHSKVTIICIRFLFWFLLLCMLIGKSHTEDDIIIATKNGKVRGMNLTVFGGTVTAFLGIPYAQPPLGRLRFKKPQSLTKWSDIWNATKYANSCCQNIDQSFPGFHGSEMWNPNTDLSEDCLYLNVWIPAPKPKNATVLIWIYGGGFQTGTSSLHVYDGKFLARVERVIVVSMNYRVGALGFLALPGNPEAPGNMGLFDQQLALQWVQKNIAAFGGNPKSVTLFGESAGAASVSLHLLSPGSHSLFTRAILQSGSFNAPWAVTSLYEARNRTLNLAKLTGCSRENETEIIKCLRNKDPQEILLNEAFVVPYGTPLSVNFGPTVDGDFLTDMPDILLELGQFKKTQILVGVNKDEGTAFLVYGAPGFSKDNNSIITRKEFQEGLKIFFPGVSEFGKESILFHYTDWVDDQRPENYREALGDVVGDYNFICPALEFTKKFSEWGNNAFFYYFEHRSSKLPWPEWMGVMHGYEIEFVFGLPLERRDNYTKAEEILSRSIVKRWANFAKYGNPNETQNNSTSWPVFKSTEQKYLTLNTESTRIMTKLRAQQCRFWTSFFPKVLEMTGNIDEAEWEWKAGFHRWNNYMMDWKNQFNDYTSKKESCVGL
Chain of Cholinesterase (Equus caballus, UniProt P81908) (P81908 whole entry): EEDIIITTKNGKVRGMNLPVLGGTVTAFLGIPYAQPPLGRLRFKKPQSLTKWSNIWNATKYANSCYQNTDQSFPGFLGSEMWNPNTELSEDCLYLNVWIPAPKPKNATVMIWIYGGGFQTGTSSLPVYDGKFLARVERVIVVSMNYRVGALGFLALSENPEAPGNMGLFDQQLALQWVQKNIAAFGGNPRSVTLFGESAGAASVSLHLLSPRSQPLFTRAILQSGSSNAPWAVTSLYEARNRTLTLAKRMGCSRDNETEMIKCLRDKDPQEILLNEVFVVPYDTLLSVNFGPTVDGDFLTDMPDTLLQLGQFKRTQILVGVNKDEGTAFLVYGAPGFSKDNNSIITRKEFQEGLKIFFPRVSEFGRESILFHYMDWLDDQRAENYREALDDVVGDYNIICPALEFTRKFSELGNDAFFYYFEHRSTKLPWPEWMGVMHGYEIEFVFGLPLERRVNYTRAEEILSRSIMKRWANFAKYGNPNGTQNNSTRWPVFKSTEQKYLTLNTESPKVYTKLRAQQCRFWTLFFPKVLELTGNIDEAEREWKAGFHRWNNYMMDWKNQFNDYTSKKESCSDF
Chain of Acetylcholinesterase (Homo sapiens, UniProt P22303) (P22303 whole entry): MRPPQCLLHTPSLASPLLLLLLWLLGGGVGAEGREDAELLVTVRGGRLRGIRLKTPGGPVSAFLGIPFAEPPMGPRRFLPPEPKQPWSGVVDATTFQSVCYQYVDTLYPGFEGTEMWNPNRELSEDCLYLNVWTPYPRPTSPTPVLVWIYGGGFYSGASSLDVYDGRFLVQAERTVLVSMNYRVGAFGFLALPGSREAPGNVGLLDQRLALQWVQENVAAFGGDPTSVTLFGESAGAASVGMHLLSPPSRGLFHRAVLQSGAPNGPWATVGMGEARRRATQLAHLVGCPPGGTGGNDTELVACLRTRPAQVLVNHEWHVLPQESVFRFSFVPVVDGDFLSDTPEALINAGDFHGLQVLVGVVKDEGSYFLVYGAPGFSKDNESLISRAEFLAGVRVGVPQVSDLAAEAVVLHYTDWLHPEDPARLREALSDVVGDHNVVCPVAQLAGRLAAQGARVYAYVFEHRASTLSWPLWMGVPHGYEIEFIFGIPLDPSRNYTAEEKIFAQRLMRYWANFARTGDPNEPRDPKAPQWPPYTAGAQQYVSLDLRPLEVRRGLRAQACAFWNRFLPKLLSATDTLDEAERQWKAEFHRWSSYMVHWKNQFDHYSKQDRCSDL

For `C#Cc1cccc(NCC(O)c2cccc(OC(=O)N(C)C)c2)c1` (stereo not drawn), the figures for the negative logarithm of the IC50 (pIC50) on Acetylcholinesterase [1] and against Cholinesterase [2] were 4.15 and 6.81, respectively.
As to `CN(C)C(=O)Oc1cccc(C(O)CNC2CCCCC2)c1` (stereo not drawn), the pIC50 (as a rule, −log10 of the IC50, conventionally taken in molar units) against Acetylcholinesterase [1] was 5.73; at Cholinesterase [2], 8.10; against Acetylcholinesterase [3], 3.10; on Cholinesterase [4], 5.66. Besides, the inhibition result was “Tde” at Cholinesterase [5] and “Dose-dependent effect” on Cholinesterase [6]. The results for the K on Cholinesterase [7] and at Cholinesterase [8] were 1110 ×10⁴ /M/min and 18.9 ×10⁻³ /min, respectively. At Cholinesterase [9], the Ratio was found to be 10.
Regarding `CN(C)C(=O)Oc1cccc(C(O)CN2CCOCC2)c1` (stereo not drawn), the figures for the negative logarithm of the IC50 (pIC50) against Acetylcholinesterase [1] and against Cholinesterase [2] were less than 4.00 and 5.66, respectively.
Regarding `CN(C)C(=O)Oc1cccc(C(O)CN2CCCC2)c1` (stereo not drawn), the negative-log IC50 (pIC50) against Acetylcholinesterase [1] is 5.50; against Cholinesterase [2] it was 6.75.
`CCC(C)(C)NCC(O)c1ccc(OC(=O)N(C)C)cc1` (stereo not drawn): the values for the negative logarithm of the IC50 (pIC50) at Acetylcholinesterase [1] and against Cholinesterase [2] were 4.80 and 5.80, respectively.
On to `CN(C)C(=O)Oc1ccc(C(O)CNC(C)(C)C)cc1` (stereo not drawn), for which the pIC50 on Acetylcholinesterase [1] is 4.82; at Cholinesterase [2] it was 5.27.
Take `CN(C)C(=O)Oc1ccc(C(O)CN2CCCCC2)cc1` (stereo not drawn): the negative logarithm of the IC50 (pIC50) was 5.45 on Acetylcholinesterase [1] and 6.61 on Cholinesterase [2].
As to `CN(C)C(=O)Oc1cccc(C(O)CNC(C)(C)c2ccccc2)c1` (stereo not drawn), the pIC50 against Acetylcholinesterase [1] is 5.15; at Cholinesterase [2] it was 6.52.
`CN(C)C(=O)Oc1cccc(C(O)CNC(C)(C)C)c1` (stereo not drawn): the values for the pIC50 at Acetylcholinesterase [1] and on Cholinesterase [2] were 5.22 and 6.42, respectively.
As to `CN(C)C(=O)Oc1cccc(C(O)CNc2ccc(F)cc2)c1` (stereo not drawn), the values for the pIC50 against Acetylcholinesterase [1] and on Cholinesterase [2] were 4.34 and 6.71, respectively.
Regarding `CN(C)C(=O)Oc1ccc(C(O)CNC2CCCCC2)cc1` (stereo not drawn), the negative-log IC50 (pIC50) on Acetylcholinesterase [1] was 6.18; at Cholinesterase [2] it was 7.57; at Acetylcholinesterase [3] it was 3.58; against Cholinesterase [4], 4.97. Moreover, the results for the inhibition result at Cholinesterase [10] and on Cholinesterase [6] were “Tde” and “Dose-dependent effect”, respectively. The results for the K at Cholinesterase [7] and at Cholinesterase [8] were 206 ×10⁴ /M/min and 14.8 ×10⁻³ /min, respectively. Also, on Cholinesterase [9], the Ratio turned out to be 20.
Turning to `CN(C)C(=O)Oc1cccc(C(O)CNc2ccccc2)c1` (stereo not drawn), the pIC50 on Acetylcholinesterase [1] is 4.17; at Cholinesterase [2], 6.55.
In the same order, the values of `CN(C)C(=O)Oc1cccc(C(O)CN2CCCCC2)c1` (stereo not drawn) are 5.43 and 7.01.
Regarding `CCN(C)C(=O)Oc1cccc([C@H](C)N(C)C)c1`, the K on Cholinesterase [7] is 33.3 ×10⁴ /M/min; at Cholinesterase [8] it was 2.3 ×10⁻³ /min.
For the compound `CCC(C)(C)NCC(O)c1cccc(OC(=O)N(C)C)c1` (stereo not drawn), the negative-log IC50 (pIC50) against Acetylcholinesterase [1] is 5.38; at Cholinesterase [2] it was 6.74.
In the case of `CN(C)C(=O)Oc1cccc(C(O)CNC2CCCC2)c1` (stereo not drawn), the pIC50 against Acetylcholinesterase [1] was 5.86; at Cholinesterase [2], 7.24.
`CN(C)C(=O)Oc1cccc(C(O)CNc2ccc(I)cc2)c1` (stereo not drawn): the negative-log IC50 (pIC50) was 4.54 at Acetylcholinesterase [1] and 6.42 against Cholinesterase [2].

The values are drawn from ChEMBL document CHEMBL4627270, “Design, synthesis and biological evaluation of novel carbamates as potential inhibitors of acetylcholinesterase and butyrylcholinesterase” (Bioorg Med Chem, 2020).
